Reference: ChEMBL document CHEMBL3137667, “[Drug-induced liver injury; fourteenth updated edition of the bibliographic database of liver injuries and related drugs]” (Gastroenterol Clin Biol, 2004)

Legend:
[1] = human, serum
[2] = human
[3] = human; remark: listed apart in the source
[4] = human; remark: listed apart in the source
[5] = human; remark: listed apart in the source
[6] = Highest frequency of moderate liver toxicity observed during clinical trials, expressed as a percentage. [column '% BIOL' in source]; conditions: human
[7] = human; remark: listed apart in the source
[8] = human; remark: listed apart in the source
[9] = human; remark: listed apart in the source
[10] = human; remark: listed apart in the source
[11] = Highest frequency of acute liver toxicity observed during clinical trials, expressed as a percentage. [column '% AIGUE' in source]; conditions: human
[12] = human, serum; remark: listed apart in the source
[13] = human; remark: listed apart in the source
[14] = human, serum, 4383 h
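For Hepatotoxicity (association with vascular disease) in this document: count of indexed literature references reporting vascular liver injury in humans, e.g. peliosis hepatitis, hepatic veno-occlusive disease or Budd-Chiari syndrome.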
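For Hepatotoxicity (benign tumour) in this document: value is a count of indexed literature references citing a benign tumour confirmed by histopathology.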
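For Hepatotoxicity (choleostasis) in this document: human cholestatic liver injury, shown by histopathology or by peak ALT or AST elevation over alkaline phosphatase ratio below 2, value counts indexed literature reports.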
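For Hepatotoxicity (chronic liver disease) in this document: chronic liver injury confirmed by histopathology or persistently raised serum aminotransferase activity beyond 6 months, value given as the count of indexed literature references.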
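For Hepatotoxicity (cirrhosis) in this document: value is a count of indexed literature references reporting cirrhosis confirmed by histopathology.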
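For Hepatotoxicity (cytolytic) in this document: human cytolytic liver injury, shown by histopathology or by a ratio above 5 of peak ALT or AST elevation to alkaline phosphatase elevation, value counts indexed references.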
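For Hepatotoxicity (granulomatous hepatitis) in this document: value is a count of indexed literature references reporting granulomatous liver disease confirmed by histopathology.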
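For Hepatotoxicity (malignant tumour) in this document: malignant tumour confirmed by histopathology, value gives the count of indexed literature references reporting it.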
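For Hepatotoxicity (severe hepatitis) in this document: human clinical data: severe hepatitis, meaning potentially life-threatening liver failure or clinically observed cases, the value counts how many indexed literature references report it.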
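For Hepatotoxicity (steatosis) in this document: steatosis confirmed by histopathology, value is the count of indexed references.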

Row | Compound | Hepatotoxicity (acute) [1] | Hepatotoxicity (malignant tumour) [2] | Hepatotoxicity (benign tumour) [3] | Hepatotoxicity (choleostasis) [4] | Hepatotoxicity (cytolytic) ([5]; Liver) | Hepatotoxicity (moderate) ([6]; Liver) [%] | Hepatotoxicity (cirrhosis) [7] | Hepatotoxicity (granulomatous hepatitis) ([8]; Liver) | Hepatotoxicity (steatosis) [9] | Hepatotoxicity (association with vascular disease) [10] | Hepatotoxicity (acute) ([11]; Liver) [%] | Hepatotoxicity (moderate) [12] | Hepatotoxicity (severe hepatitis) ([13]; Liver) | Hepatotoxicity (choleostasis) ([4]; Liver) | Hepatotoxicity (chronic liver disease) [14] | Hepatotoxicity (cytolytic) [5] | Hepatotoxicity (moderate) [6] [%] | Hepatotoxicity (granulomatous hepatitis) [8] | Hepatotoxicity (acute) [11] [%] | Hepatotoxicity (severe hepatitis) [13]
1 | C[C@]12C=CC(=O)C=C1CC[C@@H]1[C@@H]2CC[C@@]2(C)[C@H]1CC[C@]2(C)O (stereo in doubt; form 2) [METHANDROSTENOLONE] | 1 | 1 | 0 | 1 | – | – | – | – | – | – | – | – | – | – | – | – | – | – | – | –
2 | CC(C)(C)NCC(O)c1ccc(O)c(CO)c1 (stereo unspecified) [ALBUTEROL] | – | 0 | 0 | – | 0 | 0 | 0 | 0 | 0 | 0 | 4 | 0 | 0 | 0 | 0 | – | – | – | – | –
3 | CCn1nc(C(=O)O)c(=O)c2cc3c(cc21)OCO3 [CINOXACIN] | – | 0 | 0 | 0 | – | – | 0 | – | 0 | 0 | – | 3 | – | – | 0 | 0 | 1 | 0 | 0 | 0
4 | O=c1oc2ccccc2c(O)c1Cc1c(O)c2ccccc2oc1=O [DICUMAROL] | – | 0 | 0 | 0 | – | – | 0 | – | 0 | 0 | – | 3 | – | – | 0 | 0 | 0 | 0 | – | 0
5 | COc1cccc2c1C(=O)c1c(O)c3c(c(O)c1C2=O)C[C@@](O)(C(=O)CO)C[C@@H]3O[C@H]1C[C@H](N)[C@@H](O)[C@H](C)O1 [EPIRUBICIN] | 0 | 0 | 0 | 0 | – | – | 0 | – | 0 | 0 | – | 3 | – | – | 0 | 0 | 6.4 | 0 | – | 0
6 | CC(C)(C(=O)O)c1ccc(C(O)CCCN2CCC(C(O)(c3ccccc3)c3ccccc3)CC2)cc1 (stereo unspecified) [FEXOFENADINE] | – | 0 | 0 | – | 0 | 1.8 | 0 | 0 | 0 | 0 | – | 1 | 0 | 0 | 0 | – | – | – | – | –
7 | CO[C@@]1(NC(=O)CSC(F)F)C(=O)N2C(C(=O)O)=C(CSc3nnnn3CCO)CO[C@@H]21 [FLOMOXEF] | – | 0 | 0 | 0 | – | – | 0 | – | 0 | 0 | – | 55 | – | – | 0 | 0 | 33.3 | 0 | 0 | 0
8 | C#C[C@]1(O)CC[C@H]2[C@@H]3CCC4=CC(=O)CC[C@@H]4[C@H]3CC[C@@]21CC [LEVONORGESTREL] | – | 0 | 0 | – | 0 | 0.4 | 0 | 0 | 0 | 0 | – | 1 | 0 | 0 | 0 | – | – | – | – | –
9 | CC(=O)NC[C@H]1CN(c2ccc(N3CCOCC3)c(F)c2)C(=O)O1 [LINEZOLID] | – | 0 | 0 | 0 | – | – | 0 | – | 0 | 0 | – | 1 | – | – | 0 | 0 | 1 | 0 | – | 0
10 | C#CC(C)(O)CC (stereo unspecified) [MEPARFYNOL] | – | 0 | 0 | 1 | – | – | 0 | – | 0 | 0 | – | 0 | – | – | 0 | 0 | 0 | 0 | – | 0
11 | CC1CS(=O)(=O)CCN1/N=C/c1ccc([N+](=O)[O-])o1 (stereo unspecified) [NIFURTIMOX] | – | 0 | 0 | – | 0 | 0 | 0 | 0 | 0 | 0 | – | 0 | 0 | 0 | 0 | – | – | – | – | –
12 | CCn1cc(C(=O)O)c(=O)c2cc(F)c(N3CCN(C)CC3)cc21 [PEFLOXACIN] | 0 | 0 | 0 | 0 | – | 16.7 | 0 | – | 0 | – | 0 | 5 | 0 | – | 0 | 0 | – | 0 | – | –
13 | Oc1c(Cl)c(Cl)c(Cl)c(Cl)c1Cl [PENTACHLOROPHENOL] | – | 0 | 0 | 0 | – | – | 0 | – | 1 | 0 | – | 0 | – | – | 1 | 0 | 0 | 0 | – | 0
14 | CC(C)NCC(O)COc1cccc2[nH]ccc12 (stereo unspecified) [PINDOLOL] | – | 0 | 0 | 0 | – | – | 0 | – | 0 | 0 | – | 1 | – | – | 0 | 0 | 7 | 0 | 0 | 0
15 | Nc1ccc(S(=O)(=O)Nc2ccccn2)cc1 [SULFAPYRIDINE] | – | 0 | 0 | 0 | – | 0 | 0 | – | 0 | 0 | – | 0 | 0 | – | 0 | 0 | – | 0 | – | –
16 | NC(=O)c1csc([C@@H]2O[C@H](CO)[C@@H](O)[C@H]2O)n1 [TIAZOFURIN] | – | 0 | 0 | 0 | – | – | 0 | – | 0 | 0 | – | 7 | – | – | 0 | 0 | 62.5 | 0 | 0 | 0
17 | Oc1ncc(N(CCCl)CCCl)c(O)n1 [URACIL MUSTARD] | – | 0 | 0 | – | 1 | 0 | 0 | 0 | 0 | 0 | – | 0 | 0 | 0 | 1 | – | – | – | – | –
18 | CARBETIMER | 0 | 0 | 0 | 0 | – | – | 0 | – | 0 | 0 | – | 2 | – | – | 0 | 0 | – | 0 | 0 | 0
